One assay has as its target T1, EV-A71 Δ2C^116-329 (Enterovirus A71, UniProt B9VUU3).
T1 construct: N-terminally truncated mature protein 2C residues 116-329, cut from the genome polyprotein; N-terminal MBP tag and C-terminal His6 (kept, MBP-Δ2C-(His)6); codon-optimised synthetic gene in pMALc5x, E. coli Rosetta 2(DE3) pLysS; active as hexamer
Description: malachite green ATPase assay. It counts as biochemical.

Assay [1] has as its system EV-A71. The assay can be described thus: microbe, parasite or virus in culture. As to conditions: Enterovirus A, EV71 / EVA71, read-out: EC50 µM, EV-71 neutral red. Also on record: NIAID secondary assay, neutral red cytopathic effect reduction.
The test system of assay [2] is EV-A71. Description: microbe, parasite or virus in culture. Also on record: NIAID secondary assay, virus yield reduction, visual titre. As to conditions: Enterovirus A, EV71 / EVA71, read-out: EC90 µM, EV-71 VYR.
Assay [3] relates to EV-68 (EV-D68). Description: microbe, parasite or virus in culture. Further details: NIAID secondary assay, neutral red cytopathic effect reduction. As to conditions: Enterovirus D, read-out: EC50 µM, EV-68 neutral red.
Assay [4] concerns EV-68 (EV-D68). The assay can be described thus: microbe, parasite or virus in culture. Also on record: NIAID secondary assay, virus yield reduction, visual titre. As to conditions: Enterovirus D, read-out: EC90 µM, EV-68 VYR.

T1 sequence (B9VUU3 1227-1440, stated change not applied): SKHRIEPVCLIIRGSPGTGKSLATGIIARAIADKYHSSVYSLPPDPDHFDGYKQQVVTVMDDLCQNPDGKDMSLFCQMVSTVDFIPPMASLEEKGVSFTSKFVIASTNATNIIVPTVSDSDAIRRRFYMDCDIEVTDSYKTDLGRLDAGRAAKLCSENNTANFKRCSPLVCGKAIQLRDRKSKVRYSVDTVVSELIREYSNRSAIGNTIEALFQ

The compound `Cc1ccc2[nH]c(-c3ccc(NC(=O)c4cccs4)cc3)nc2c1` [SJW-2C-227] displayed an IC50 against EV-A71 Δ2C^116-329 of 23.4 µM. The 50% effective concentration (EC50) with EV-A71 [1] turned out to be 1.7 µM; in the assay on EV-68 (EV-D68) [3], 0.52 µM. The EC90 turned out to be 3.2 µM in the assay with EV-A71 [2] and 0.59 µM in the assay with EV-68 (EV-D68) [4].
On EV-A71 Δ2C^116-329, `Cc1ccc2[nH]c(-c3ccc(NC(=O)c4ccc(C)c(C)c4)cc3)nc2c1` [SJW-2C-234] yielded a half-inhibitory concentration (IC50) of 55 µM.
On the same count and under the same terms, the value for `O=C(Nc1ccc(-c2nc3cc4ccccc4cc3[nH]2)cc1)c1cccc(Br)c1` [SJW-2C-239] was 33.1 µM.

The term IC50 denotes the point on the concentration scale where inhibition reaches its midpoint. By EC50 is commonly meant the concentration at which the effect is half-maximal. A word on the EC90: it is the concentration at which the effect reaches the 90% level.
